From patent US20130059850A1, “AZA-INDOLE DERIVATIVES USEFUL AS MODULATORS OF FAAH” (MERCK SHARP & DOHME CORP., priority 2010, published 2013) come the findings set out here.

The assay has as its target T1, human FAAH (Fatty Acid Amide Hydrolase) (Homo sapiens, UniProt O00519).
T1 construct: The full length FAAH was subcloned into the mammalian expression vector, pcDEF.neo, using XbaI and EcoRI restriction sites; expressed in transfected cells
T1 sequence (O00519 1-579): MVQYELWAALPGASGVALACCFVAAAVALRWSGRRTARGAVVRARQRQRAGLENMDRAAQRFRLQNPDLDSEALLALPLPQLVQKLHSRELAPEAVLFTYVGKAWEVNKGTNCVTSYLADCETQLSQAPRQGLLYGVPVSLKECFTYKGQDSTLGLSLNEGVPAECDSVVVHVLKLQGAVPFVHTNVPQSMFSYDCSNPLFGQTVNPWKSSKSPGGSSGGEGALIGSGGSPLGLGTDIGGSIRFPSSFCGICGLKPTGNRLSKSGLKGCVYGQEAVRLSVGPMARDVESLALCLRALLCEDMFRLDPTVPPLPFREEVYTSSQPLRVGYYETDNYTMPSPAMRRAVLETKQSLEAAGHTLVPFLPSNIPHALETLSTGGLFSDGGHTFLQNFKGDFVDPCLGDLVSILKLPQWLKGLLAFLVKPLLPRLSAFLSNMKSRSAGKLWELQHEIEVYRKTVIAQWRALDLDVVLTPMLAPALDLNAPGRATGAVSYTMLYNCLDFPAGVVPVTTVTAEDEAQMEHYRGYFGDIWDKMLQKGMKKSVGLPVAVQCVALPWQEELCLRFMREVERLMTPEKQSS
Briefly: FAAH whole cell assay on CHO cells expressing human FAAH (human WC), AAMCA fluorescent substrate. The settings on record: human FAAH_CHO whole cell. In kind it is cell-based. The source says:
To assist in assay development stable cell lines for human, murine and rat full length FAAH were developed. Human FAAH cDNA (Accession No: NM_001441.1) was purchased from Origene (Rockville, Md.). The full length FAAH was subcloned into the mammalian expression vector, pcDEF.neo, using XbaI and EcoRI restriction sites and used for stable cell line generation.
Murine (accession number NM_010173) and Rat FAAH (accession number NM_024132) was amplified by reverse transcriptase polymerase chain reaction (RT-PCR) from brain cDNA (BD Biosciences, San Jose, Calif.) using primers 1 and 2 or primers 1 and 3 respectively (see Table). The resulting PCR product was ligated into pCR4 TOPO and DNA sequence confirmed. The full length murine FAAH was subcloned into the mammalian expression vector, pcDEFneo using either EcoRI (murine) or KpnI and EcoRI (rat) restriction sites. Chinese hamster ovary cells (CHO) were transfected following manufacturers protocol (AMAXA). Forty eight hours post transfection, cells were trypsinized and transferred to 96 well plates in Iscove's DMEM media supplemented with 2 mM Glutamine, 10% fetal calf serum, 1 mg/ml geneticin and HT Supplement (0.1 mM sodium hypoxanthine, 0.016 mM thymidine) in order to isolate single clones. Following selection in geneticin, individual clones were selected and FAAH activity was assessed using a whole cell fluorescent anandamide assay, modified from Ramarao et al (2005). Following removal of tissue culture media cells were dislodged following addition of Cellstripper (Mediatech, Inc. Manassas, Va.) and transferred to 96 well black clear bottom assay plate, centrifuged at 1,000 rpm for 3 mins and media removed and replaced with assay buffer (50 mM Tris pH8.0, 1 mM EDTA, 0.1% fatty acid free BSA). The reaction was initiated by addition of fluorescent substrate, AMC Arachidonoyl Amide (Cayman Chemical, Ann Arbor, Mich.) to 1 μM and reaction allowed to proceed for 2 hours at room temperature. Release of fluorescence was monitored in a CytoFluor Multiplate Reader. Cells expressing the highest amount of FAAH activity were selected for study with FAAH inhibitors.
(American Radiolabeled Chemicals; 1 mCi/ml) with FAAH (Life Sciences (1995), 56, 1999-2005 and Journal of Pharmacology and Experimented Therapeutics (1997), 283, 729-734), Analytical. Biochemistry (2003), 318, 270-5. In addition, routine assays were performed monitoring hydrolysis of arachidonyl-7-amino-4-methylcoumarin amide (AAMCA) by following increase in fluorescence upon release of 7-amino 4-methyl coumarin (λEX=355 nm, μEM=460 nm). Analytical. Biochemistry (2005). 343, 143-51
Assays are performed on either cell lysate or microsome fractions prepared as described or in whole cell format employing either the fluorescent substrate AAMCA (Cayman chemical, Ann Arbor, Mich.,) or ^3H-anandamide ([ETHANOLAMINE-1-3H] American Radiolabeled Chemicals; 1 mCi/ml). The cell lysate or microsome assay is performed in black PerkinElmer OptiPlates-384F by adding FAAH_CHO (whole cell (human whole cell or human WC), cell lysate (human cell lysate or human LY) or microsome) in assay buffer (50 mM Phosphate, pH 8.0, 1 mM EDTA, 200 mM KCl, 0.2% glycerol, 0.1% fatty acid free BSA) to each well, followed by either DMSO or compound and allowed to incubate at 22-25° C. for fifteen minutes. AAMCA substrate was used to achieve a final concentration of 1 μM and reaction allowed to proceed at room temperature for 1-3 hours. Fluorescent release as a measure of FAAH activity was monitored by reading the plate in a Envision plate Reader (Ex: 360/40 nM; Em: 460/40 nM). Whole cell assay is conducted with cells harvested after rinsing tissue culture flasks three times with Ca^++Mg^++ free PBS, incubating for […] in Enzyme free dissociation media and centrifuging for 5 minutes at 1,000 rpm in table top centrifuge. […]

What is called IC50 is the concentration that inhibits the measured activity by half. High values mean lower potency, low ones higher potency. Take `Cn1cc2cc(-c3[nH]c4ncccc4c3Sc3ccc(Cl)cc3)ccc2n1` [Example B42]: the IC50 turned out to be 5.84 nM.
Consider `Cn1cc2cc(-c3[nH]c4ncccc4c3Sc3ccc(Cl)cn3)ccc2n1` [Example B44], for which 25 nM corresponded to half-maximal inhibition (IC50).
Then `OC[C@H]1CC[C@H](c2[nH]c3ncccc3c2Sc2ccc(Cl)cc2)CC1` [Example B52], with 35.6 nM; and `O=C(c1[nH]c2ncccc2c1Sc1ccc(Cl)cc1)N1CCC(O)CC1` [Example C6, {3-[(4-chlorophenyl)sulfanyl]-1H-pyrrolo[2,3-b]pyridin-2-yl}(4-hydroxypiperidin-1-yl)methanone], with 1090 nM; and `O=C(NCCO)c1[nH]c2ncccc2c1Sc1ccc(Cl)cc1` [Example C18], with 2980 nM.
Then `O=C(NCCCO)c1[nH]c2ncccc2c1Sc1ccc(Cl)cc1` [Example C19], with 607 nM; and `C[C@H](CO)NC(=O)c1[nH]c2ncccc2c1Sc1ccc(Cl)cc1` [Example C20], with 2110 nM; and `O=C(NCCCCO)c1[nH]c2ncccc2c1Sc1ccc(Cl)cc1` [Example C21], with 363 nM.
With `O=C(NCC1(CO)CCOCC1)c1[nH]c2ncccc2c1Sc1ccc(Cl)cc1` [Example C22], the IC50 amounted to 1170 nM.
With `Cn1cccc2c(Sc3ccc(Cl)cc3)c(-c3ccc(C(O)C(F)F)cc3)nc1-2` (stereo not drawn) [Example E25] the figure was 59.5 nM; with `Cn1cccc2c(Sc3ccc(Cl)cc3)c(C(=O)NC3CCC(O)CC3)nc1-2` (stereo not drawn) [Example E26], 504 nM.
`C[C@@H](Cc1nc2n(C)cccc-2c1Sc1ccc(Cl)cc1)C(C)(C)O` [Example E27] returned an IC50 of 112 nM.
In turn, `Cn1cccc2c(Sc3ccc(Cl)cc3)c(-c3ccc4c(c3)CNC4=O)nc1-2` [Example E28] gave a half-inhibitory concentration (IC50) of 24 nM.
Compound `Cn1cc2cc(-c3nc4n(C)cccc-4c3Sc3ccc(Cl)cc3)ccc2n1` [Example E29] gave an IC50 of 17.3 nM.
Take `Cn1cc2cc(-c3nc4n(C)cccc-4c3Sc3ccc(Cl)cn3)ccc2n1` [Example E30]: the IC50 is 87.2 nM.
Turning to `Cn1cccc2c(Sc3ccc(Cl)cn3)c(-c3ccc4c(c3)CNC4=O)nc1-2` [Example E31], the IC50 was 144 nM.
In turn, `COC(=O)N1CCC(c2nc3n(C)cccc-3c2Sc2ccc(Cl)cc2)CC1` [Example E32] gave an IC50 of 9.35 nM.
With `CCOC(=O)CCc1[nH]c2ncccc2c1Sc1ccc(Cl)cc1` [Example F3, Ethyl 3-{3-[(4-chlorophenyl)sulfanyl]-1H-pyrrolo[2,3-b]pyridin-2-yl}propanoate] the figure was 64.9 nM; with `Clc1ccc(Sc2c(CC3CCCCC3)[nH]c3ncccc23)cc1` [Example F4], 266 nM; with `N#CCCCc1[nH]c2ncccc2c1Sc1ccc(Cl)cc1` [Example F6], 3470 nM.
The compound `CCOC(=O)CCCc1[nH]c2ncccc2c1Sc1ccc(Cl)cc1` [Example F10] displayed an IC50 of 350 nM.
Then `Clc1ccc(Sc2c(C3CCNCC3)[nH]c3ncccc23)cc1` [Example G3, 3-[(4-chlorophenyl)sulfanyl]-2-(piperidin-4-yl)-1H-pyrrolo[2,3-b]pyridine], with 672 nM.
Consider `COC(=O)N1CCC(c2[nH]c3ncccc3c2Sc2ccc(Cl)cc2)CC1` [Example G5, Methyl 4-{3-[(4-chlorophenyl)sulfanyl]-1H-pyrrolo[2,3-b]pyridin-2-yl}piperidine-1-carboxylate], for which the IC50 stood at 11.1 nM.
Then `COC(=O)CN1CCC(c2[nH]c3ncccc3c2Sc2ccc(Cl)cc2)CC1` [Example G7, Methyl (4-{3-[(4-chlorophenyl)sulfanyl]-1H-pyrrolo[2,3-b]pyridin-2-yl}piperidin-1-yl)acetate], with 23.8 nM.
Take `CC(C)(O)CCc1[nH]c2ncccc2c1Sc1ccc(Cl)cc1` [Example H2, 4-{3-[(4-chlorophenyl)sulfanyl]-1H-pyrrolo[2,3-b]pyridin-2-yl}-2-methylbutan-2-ol]: the IC50 amounted to 152 nM.
With `OCCCc1[nH]c2ncccc2c1Sc1ccc(Cl)cc1` [Example H4, 3-{3-[(4-chlorophenyl)sulfanyl]-1,1-pyrrolo[2,3-b]pyridin-2-yl}propan-1-ol], the IC50 stood at 689 nM.
Compound `CC(C)(O)CN1CCC(c2[nH]c3ncccc3c2Sc2ccc(Cl)cc2)CC1` [Example H5] returned an IC50 of 31.8 nM.
With `OCCCCc1[nH]c2ncccc2c1Sc1ccc(Cl)cc1` [Example H6] the figure was 523 nM.
`C[C@H](CO)Cc1[nH]c2ncccc2c1Sc1ccc(Cl)cc1` [Example H7] yielded an IC50 of 1200 nM.
With `C[C@@H](Cc1[nH]c2ncccc2c1Sc1ccc(Cl)cc1)C(C)(C)O` [Example H8] the figure was 88.5 nM.
